Numbers after ± are expanded uncertainties.
Experiment: xn = mol fraction of the nth substance listed
Details: 101 kPa, Liquid; for viscosity: Capillary tube (Ostwald / Ubbelohde) method; for mass density: Vibrating tube method

NCCCO [3-amino-1-propanol] + CCCCCCn1cc[n+](C)c1.F[B-](F)(F)F
Details | mass density [kg/m3] | viscosity [mPa·s]
293.15 K, x2 = 0 | 987.55 ± 0.23 | 39.29 ± 1.6
293.15 K, x2 = 0.0536 | 1010.87 ± 0.31 | 39.35 ± 1.6
293.15 K, x2 = 0.0969 | 1026.17 ± 0.32 | 42.89 ± 1.8
293.15 K, x2 = 0.202 | 1055.57 ± 0.38 | 49.26 ± 2.1
293.15 K, x2 = 0.3217 | 1080.32 ± 0.47 | 56.99 ± 2.4
293.15 K, x2 = 0.4942 | 1105.94 ± 0.62 | 77.82 ± 3.3
293.15 K, x2 = 0.6135 | 1118.92 ± 0.73 | 97.27 ± 4.2
293.15 K, x2 = 0.7276 | 1129.17 ± 0.85 | 125.01 ± 5.6
293.15 K, x2 = 0.8343 | 1137.49 ± 0.96 | 163.87 ± 7.5
293.15 K, x2 = 0.9204 | 1143.7 ± 1.1 | 192.2 ± 9.1
298.15 K, x2 = 0 | 983.55 ± 0.23 | 30.43 ± 1.3
298.15 K, x2 = 0.0536 | 1006.96 ± 0.3 | 30.8 ± 1.3
298.15 K, x2 = 0.0969 | 1022.3 ± 0.31 | 33.2 ± 1.4
298.15 K, x2 = 0.202 | 1051.74 ± 0.38 | 37.85 ± 1.6
298.15 K, x2 = 0.3217 | 1076.53 ± 0.47 | 44.61 ± 1.9
298.15 K, x2 = 0.4942 | 1102.24 ± 0.62 | 59.65 ± 2.5
298.15 K, x2 = 0.6135 | 1115.24 ± 0.73 | 74.53 ± 3.2
298.15 K, x2 = 0.7276 | 1125.66 ± 0.84 | 95.2 ± 4.1
298.15 K, x2 = 0.8343 | 1134.08 ± 0.95 | 123.47 ± 5.5
298.15 K, x2 = 0.9204 | 1140.23 ± 1.1 | 148.27 ± 6.8
303.15 K, x2 = 0 | 979.53 ± 0.23 | 23.87 ± 0.99
303.15 K, x2 = 0.0536 | 1003.04 ± 0.3 | 24.16 ± 1
303.15 K, x2 = 0.0969 | 1018.41 ± 0.31 | 26.02 ± 1.1
303.15 K, x2 = 0.202 | 1047.91 ± 0.38 | 29.45 ± 1.2
303.15 K, x2 = 0.3217 | 1072.75 ± 0.47 | 34.55 ± 1.4
303.15 K, x2 = 0.4942 | 1098.55 ± 0.61 | 46.03 ± 1.9
303.15 K, x2 = 0.6135 | 1111.63 ± 0.72 | 57.96 ± 2.4
303.15 K, x2 = 0.7276 | 1122.11 ± 0.83 | 73.65 ± 3.1
303.15 K, x2 = 0.8343 | 1130.63 ± 0.95 | 95.84 ± 4.2
303.15 K, x2 = 0.9204 | 1136.88 ± 1 | 115.79 ± 5.1
308.15 K, x2 = 0 | 975.51 ± 0.23 | 19.07 ± 0.79
308.15 K, x2 = 0.0536 | 999.11 ± 0.3 | 19.14 ± 0.79
308.15 K, x2 = 0.0969 | 1014.5 ± 0.31 | 20.58 ± 0.86
308.15 K, x2 = 0.202 | 1044.05 ± 0.37 | 23.41 ± 0.98
308.15 K, x2 = 0.3217 | 1068.95 ± 0.46 | 27.53 ± 1.1
308.15 K, x2 = 0.4942 | 1094.86 ± 0.61 | 36.45 ± 1.5
308.15 K, x2 = 0.6135 | 1108.04 ± 0.71 | 45.81 ± 1.9
308.15 K, x2 = 0.7276 | 1118.58 ± 0.83 | 58.09 ± 2.4
308.15 K, x2 = 0.8343 | 1127.18 ± 0.94 | 75.38 ± 3.2
308.15 K, x2 = 0.9204 | 1133.5 ± 1 | 91.04 ± 3.9
313.15 K, x2 = 0 | 971.47 ± 0.23 | 15.27 ± 0.63
313.15 K, x2 = 0.0536 | 995.18 ± 0.3 | 15.64 ± 0.65
313.15 K, x2 = 0.0969 | 1010.6 ± 0.3 | 16.63 ± 0.69
313.15 K, x2 = 0.202 | 1040.2 ± 0.37 | 18.74 ± 0.78
313.15 K, x2 = 0.3217 | 1065.16 ± 0.46 | 22.05 ± 0.92
313.15 K, x2 = 0.4942 | 1091.16 ± 0.6 | 29.14 ± 1.2
313.15 K, x2 = 0.6135 | 1104.43 ± 0.71 | 36.47 ± 1.5
313.15 K, x2 = 0.7276 | 1115.05 ± 0.82 | 46.32 ± 1.9
313.15 K, x2 = 0.8343 | 1123.73 ± 0.93 | 59.62 ± 2.5
313.15 K, x2 = 0.9204 | 1130.12 ± 1 | 71.6 ± 3
318.15 K, x2 = 0 | 967.43 ± 0.23 | 12.35 ± 0.51
318.15 K, x2 = 0.0536 | 991.28 ± 0.3 | 12.68 ± 0.52
318.15 K, x2 = 0.0969 | 1006.67 ± 0.3 | 13.6 ± 0.56
318.15 K, x2 = 0.202 | 1036.34 ± 0.37 | 15.76 ± 0.65
318.15 K, x2 = 0.3217 | 1061.36 ± 0.45 | 18.42 ± 0.76
318.15 K, x2 = 0.4942 | 1087.47 ± 0.6 | 23.9 ± 1
318.15 K, x2 = 0.6135 | 1100.82 ± 0.7 | 28.64 ± 1.2
318.15 K, x2 = 0.7276 | 1111.54 ± 0.82 | 37.85 ± 1.6
318.15 K, x2 = 0.8343 | 1120.28 ± 0.93 | 48.22 ± 2
318.15 K, x2 = 0.9204 | 1126.73 ± 1 | 58.5 ± 2.5
323.15 K, x2 = 0 | 963.37 ± 0.23 | 10.22 ± 0.42
323.15 K, x2 = 0.0536 | 987.32 ± 0.3 | 10.61 ± 0.44
323.15 K, x2 = 0.0969 | 1002.75 ± 0.3 | 11.16 ± 0.46
323.15 K, x2 = 0.202 | 1032.48 ± 0.36 | 12.61 ± 0.52
323.15 K, x2 = 0.3217 | 1057.55 ± 0.45 | 15.89 ± 0.66
323.15 K, x2 = 0.4942 | 1083.77 ± 0.59 | 19.73 ± 0.82
323.15 K, x2 = 0.6135 | 1097.21 ± 0.7 | 24.2 ± 1
323.15 K, x2 = 0.7276 | 1108.02 ± 0.81 | 31.19 ± 1.3
323.15 K, x2 = 0.8343 | 1116.83 ± 0.92 | 39.61 ± 1.7
323.15 K, x2 = 0.9204 | 1123.36 ± 1 | 47.9 ± 2
328.15 K, x2 = 0 | 959.3 ± 0.23 | 8.535 ± 0.35
328.15 K, x2 = 0.0536 | 983.35 ± 0.3 | 8.7 ± 0.36
328.15 K, x2 = 0.0969 | 998.8 ± 0.3 | 9.325 ± 0.38
328.15 K, x2 = 0.202 | 1028.62 ± 0.36 | 10.96 ± 0.45
328.15 K, x2 = 0.3217 | 1053.76 ± 0.44 | 13.04 ± 0.54
328.15 K, x2 = 0.4942 | 1080.08 ± 0.59 | 16.58 ± 0.69
328.15 K, x2 = 0.6135 | 1093.61 ± 0.69 | 19.92 ± 0.83
328.15 K, x2 = 0.7276 | 1104.51 ± 0.8 | 26.05 ± 1.1
328.15 K, x2 = 0.8343 | 1113.4 ± 0.91 | 33.11 ± 1.4
328.15 K, x2 = 0.9204 | 1119.94 ± 1 | 41.26 ± 1.7
333.15 K, x2 = 0 | 955.22 ± 0.23 | 7.123 ± 0.29
333.15 K, x2 = 0.0536 | 979.37 ± 0.3 | 7.144 ± 0.29
333.15 K, x2 = 0.0969 | 994.86 ± 0.3 | 7.836 ± 0.32
333.15 K, x2 = 0.202 | 1024.75 ± 0.36 | 8.918 ± 0.37
333.15 K, x2 = 0.3217 | 1049.98 ± 0.44 | 10.47 ± 0.43
333.15 K, x2 = 0.4942 | 1076.4 ± 0.58 | 13.86 ± 0.57
333.15 K, x2 = 0.6135 | 1090.05 ± 0.69 | 17.14 ± 0.71
333.15 K, x2 = 0.7276 | 1101.02 ± 0.8 | 21.81 ± 0.91
333.15 K, x2 = 0.8343 | 1109.97 ± 0.91 | 27.5 ± 1.2
333.15 K, x2 = 0.9204 | 1116.55 ± 1 | 37.45 ± 1.6
338.15 K, x2 = 0 | 951.14 ± 0.23 | 6.045 ± 0.25
338.15 K, x2 = 0.0536 | 975.37 ± 0.3 | 6.221 ± 0.25
338.15 K, x2 = 0.0969 | 990.91 ± 0.3 | 6.676 ± 0.28
338.15 K, x2 = 0.202 | 1020.88 ± 0.36 | 7.634 ± 0.31
338.15 K, x2 = 0.3217 | 1046.21 ± 0.44 | 9.153 ± 0.38
338.15 K, x2 = 0.4942 | 1072.72 ± 0.58 | 11.94 ± 0.49
338.15 K, x2 = 0.6135 | 1086.5 ± 0.68 | 14.71 ± 0.61
338.15 K, x2 = 0.7276 | 1097.55 ± 0.79 | 18.64 ± 0.77
338.15 K, x2 = 0.8343 | 1106.57 ± 0.9 | 23.24 ± 0.96
338.15 K, x2 = 0.9204 | 1113.17 ± 1 | 32.09 ± 1.4

Source: the NIST ThermoML archive (doi:10.1016/j.jct.2011.12.008)
